The text below walks through data of publication PMC4794603 (Molecules and Cells, 2016).

Data set [1] deals with T1, CYP107W1 (Streptomyces avermitilis, UniProt Q93HJ0).
T1 sequence (Q93HJ0 1-404): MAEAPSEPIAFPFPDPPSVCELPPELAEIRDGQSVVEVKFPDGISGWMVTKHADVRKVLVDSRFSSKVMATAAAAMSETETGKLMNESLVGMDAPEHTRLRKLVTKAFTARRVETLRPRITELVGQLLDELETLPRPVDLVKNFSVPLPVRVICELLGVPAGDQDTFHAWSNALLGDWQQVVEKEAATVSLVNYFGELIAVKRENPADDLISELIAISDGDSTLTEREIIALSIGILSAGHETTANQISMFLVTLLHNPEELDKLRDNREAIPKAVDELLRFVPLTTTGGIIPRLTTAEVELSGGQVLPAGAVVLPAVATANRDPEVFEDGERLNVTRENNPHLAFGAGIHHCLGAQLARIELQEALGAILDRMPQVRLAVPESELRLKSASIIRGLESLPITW
The data set can be described thus: co-crystal structure at […] Å. The class given is binding.

In data set [2] the target is T2, CYP107W1 W178G mutant (Streptomyces avermitilis, UniProt Q93HJ0, W178G).
T2 sequence (Q93HJ0 1-404 W178G): T1 sequence (Q93HJ0 1-404)
Kind of data set: UV-vis spectral binding titration.

For data set [3], the target named is T2, CYP107W1 W178G mutant. Kind of data set: UV-vis spectral binding titration. This is another data set of the same source.
Data set [4] deals with [H][C@@]12OC(=O)C=C[C@@H](C)[C@H](O)[C@@H](C)C(=O)[C@@H](C)[C@H](O)[C@@H](C)C(=O)[C@H](C)[C@H](O)[C@@H](C)CC=CC=C[C@@H](CC)CC[C@@]([H])(O[C@@]3(CC[C@@H](C)[C@@H](C[C@H](C)O)O3)[C@@H]1C)[C@@H]2C. Kind of data set: purified protein. To be noted: heme.

Like-named read-outs stand apart in the source and are kept apart here.

`CC[C@H]1/C=C\C=C\C[C@@H](C)[C@H](O)[C@@](C)(O)C(=O)[C@@H](C)[C@H](O)[C@@H](C)C(=O)[C@@H](C)[C@H](O)[C@@H](C)/C=C/C(=O)O[C@@H]2[C@H](C)[C@H](CC1)O[C@]1(CC[C@H](C)[C@H](C[C@@H](C)O)O1)[C@H]2C` [OliA, oligomycin A]: the “co-crystal structure at 2.6 Å” value in data set [1] was “Coordinates and structure factors of CYP107W1-OliA have been deposited in the Protein Data Bank with accession number 4WQ0”.
`Clc1ccc(COC(Cn2ccnc2)c2ccc(Cl)cc2Cl)cc1` (centres unmarked) [econazole]: binding in data set [2] was characterised by a dissociation constant (Kd) of 5.3 ± 0.4 µM.
Molecule `Clc1ccc(COC(Cn2ccnc2)c2ccc(Cl)cc2Cl)c(Cl)c1` (centres unmarked) [miconazole] had a dissociation constant (Kd) in data set [2] of 3.1 ± 0.3 µM.
Molecule `CC[C@@H]1/C=C/C=C/C[C@H](C)[C@H](O)[C@](C)(O)C(=O)[C@H](C)[C@@H](O)[C@H](C)C(=O)[C@H](C)[C@@H](O)[C@H](C)/C=C/C(=O)O[C@H]2[C@@H](C)[C@@H](CC1)O[C@@]1(CC[C@@H](C)[C@@H](C[C@H](C)O)O1)[C@@H]2C` [oligomycin A] returned a Kd in data set [3] of 4.3 ± 0.7 µM.
For “CYP107W1 W178G mutant (Streptomyces avermitilis; W178G)”, the Michaelis-Menten constant (Km) in data set [4] is 3.4 ± 0.4 µM.

By Kd is commonly meant the free concentration of one partner at which half of the binding sites on the other are occupied at equilibrium, for simple one-to-one binding. By Km is commonly meant the concentration of substrate that gives half-maximal velocity.
